Source: patent US4769389A, “Oxygenated-alkyl derivatives of glutamic and aspartic acids with antagonistic activity to bio-active polypeptides and a method for their preparation” (priority 1985, dated 1988)
≈ marks a conversion by molar mass, not a printed value. Like-named read-outs stand apart in the source and are kept apart here.

Tests used:
[1] = Food consumption in rats treated daily by mouth for three weeks; type: in vivo
Description: (§1) The following tables give the average values of the food consumption and the average weight of each group of animals calculated weekly as well as the Student t value calculated between the various groups treated and the group of control animals. […] Each group received the drug (compound 1) in the doses indicated for three weeks daily by mouth. The drug in the form of the sodium salt was dissolved in water and administered in a volume of 10 ml of H2 O/kg while the control group received an equal volume of the solvent alone.

[2] = test system: pancreatic adenocarcinoma; assay: Inhibiting action on rate of growth of a pancreatic adenocarcinoma induced by CCK-8 in hamsters; type: in vivo; details: for effect on growth of a pancreatic adenocarcinoma: in words
Source text: (§2) Male hamsters were innoculated in the cheek pouch with a suspension of 1×10^5 tumour cells of a pancreatic adenocarcinoma.
(§3) Fifteen days after this treatment the animals were killed and the normal pancreas and the pancreatic tumours initiated in the cheek pouch were removed and weighed.
(§4) The DNA was extracted and measured by conventional methods.
(§5) The results obtained are given in Table 11 in which they are expressed as average values±S.E.

colon of rabbits = assay: Antispastic activity in the colon of rabbits stimulated with CCK-8; type: in vivo, rabbit; design: Antispastic activity in colon, EXPERIMENT 1 / Antispastic activity in colon, EXPERIMENT 2: unit not given here; details: CCK 100 ng/kg
Description: The abdomen of anaesthetised rabbit is cut open to display the tranverse colon. A small balloon full of water is inserted at an established point and connected to a pressure transducer by means of a polyethylene cannula filled with H2 O.
The optimum sensitivity being fixed in relation to the physiological contractions, the products were administered through the femeral vein. Contractions were induced by the administration of 100 ng/kg of CCK.

normal pancreatic cells = assay: Action on growth rate of normal pancreas induced by CCK-8 in hamsters; type: in vivo; details: for effect on normal pancreatic cells: in words
Source text: as §2, §3, §4, §5

guinea pig gall bladders = assay: Anti-CCK-8 activity on guinea-pig gallbladders in situ (in vivo); details: Cavia porcellus, iv; CCK-8 10 ng/kg i.v.; compound i.v.; read-out: ID50, anti-CCK-8 activity in situ
Description: In order to confirm the evidence of the studies in vitro, several of the more interesting compounds were tested in vivo with the use of guinea-pig gallbladders in situ.
The method used was that described by Ljungberg (Svensk. Farm. Tidskr. 69, 351-354, 1964).
Guinea-pigs having a weight of about 400 g anaesthetised with urethane were used; the substances being tested were administered intravenously (i.v.) into the jugular vein.
The responses of the gallbladder to the substances being tested were detected by means of a force transducer and recorded by means of a microdynamometer. 10 ng/kg of CCK 8 were chosen as the optimum contracting dose. The antagonistic compounds tested were administered in increasing doses so as to enable the calculation of an ID50 value, that is the dose (in mg/kg i.v.) having a 50% inhibiting effect against contractions induced by 10 ng/kg i.v. of CCK-8.

[3] = test system: pancreatitis in mice induced experimentally by cerulein; assay: Pancreatitis induced by cerulein in mice; type: in vivo; details: for ED50: Mus musculus, ip, cerulein, mice
Description: Adult male mice received six injections of cerulein (Takus) (50 mcg/kg) each hour for six hours.
The compound was administered 30 minutes before each administration of cerulein. Nine hours after the beginning of the treatment, the blood was taken from the rectro-orbitory plexus after anaesthesia with ether, the animals were killed and the pancreas removed and weighed.

[4] = Body weight of rats treated daily by mouth for three weeks; type: in vivo
Description: as §1

[5] = test system: pancreatitis in rats induced experimentally by taurocholate; assay: Pancreatitis induced by sodium taurocolate in rats; type: in vivo; details: for ED50: Rattus norvegicus, ip, taurocholate, rats
Description: The products under examination were administered intraperitoneally (i.p.) 30 minutes before the operation and 3 hours after the operation. Six hours after the laparatomy the blood was removed from the retro-orbitory plexus after anaesthesia with ether, the animals were killed and the pancreas was removed and weighed. The activity of the serum amylase was determined by the method described above.

[6] = in vivo, sc
[7] = Tolerability in parenteral administration; details: i.v. sodium salt in water up to 1.5 percent, 10 ml/kg (150 mg/kg)
guinea-pig gallbladder = assay: Anti-CCK activity on guinea-pig gallbladders in vitro (contraction by CCK-8); details: Cavia porcellus; CCK-8 10 ng/ml; in vitro
Description: ANTI-CCK ACTIVITY ON GUINEA-PIG GALLBLADDERS IN VITRO A longitudinal strip of guinea-pig gallbladder is placed in a bath for isolated organs in Krebs at a temperature of 32° C. and oxygenated continuously with an oxygen-CO2 mixture (95-[…]). The isometric contractions were detected by means of a force transducer and recorded. […] The results obtained are shown in Table 3 which gives the compounds tested and the IC50 values found which were calculated by the method of regression in a test of at least three experiments for each compound studied.

digestive tract = assay: Antispastic activity, vegetable carbon test (speed of transit through stomach and intestine) in mice; type: in vivo; details: Mus musculus, ip, read-out: A[…] ED50 (dose which reduces the intestinal transit time of the carbon by 50%), intraperitoneally
Source text: The anti-spastic activity which the present compounds exert on the whole of the digestive tract is also considerable. Measured in mice with the vegetable carbon test (speed of transit through the stomach and intestine) this activity is illustrated in the following table: […]

[8] = compound 1 4 mg/kg + CCK-8 8 mcg/kg
[9] = CCK-8 8 mcg/kg three times a day

CCCCCN(CCCOC)C(=O)C(CCC(=O)O)NC(=O)c1ccc(Cl)c(Cl)c1 (racemic) [Compound 1]
increase in the food consumption compared with the controls ([1]; 0.625 mg/kg daily): about 20% | Food consumption ([1]; 0.625 mg/kg os, 1st week): 187.1 ± 6.3 g/week | Food consumption ([1]; 0.625 mg/kg os, 2nd week): 220 ± 3.9 g/week | Food consumption ([1]; 0.625 mg/kg os, 3rd week): 242.5 ± 3.3 g/week | Food consumption ([1]; 1.25 mg/kg os, 1st week): 205 ± 4.6 g/week | Food consumption ([1]; 1.25 mg/kg os, 2nd week): 217.5 ± 3.8 g/week | Food consumption ([1]; 1.25 mg/kg os, 3rd week): 253.5 ± 2.4 g/week | Food consumption ([1]; 2.5 mg/kg os, 1st week): 209.2 ± 3.3 g/week | Food consumption ([1]; 2.5 mg/kg os, 2nd week): 222.2 ± 2.6 g/week | Food consumption ([1]; 2.5 mg/kg os, 3rd week): 270.7 ± 4.5 g/week | increase in the food consumption compared with the controls ([1]; other doses tested (1.25, 2.5 mg/kg)): about 30% | TUMORAL DNA ([2]; 4 mg/kg i.p. three times a day): 0.42 | WEIGHT OF THE PANCREATIC CARCINOMA ([2]; 4 mg/kg i.p. three times a day): 105.0 ± 4.1 mg | TUMORAL DNA [2, 8]: 0.44 | WEIGHT OF THE PANCREATIC CARCINOMA [2, 8]: 108.8 ± 5.4 mg | effect on growth of a pancreatic adenocarcinoma [2]: atagonises both these actions of CCK-8 to a highly significant extent | Antispastic activity in colon, EXPERIMENT 1 (colon of rabbits; 0.3 mg/kg i.v.): -20.8 | Antispastic activity in colon, EXPERIMENT 2 (colon of rabbits; 0.3 mg/kg i.v.): -34.1 | Antispastic activity in colon, EXPERIMENT 1 (colon of rabbits; 1 mg/kg i.v.): -48.9 | Antispastic activity in colon, EXPERIMENT 2 (colon of rabbits; 1 mg/kg i.v.): -55.6 | Antispastic activity in colon, EXPERIMENT 1 (colon of rabbits; 3 mg/kg i.v.): -100.0 | Antispastic activity in colon, EXPERIMENT 2 (colon of rabbits; 3 mg/kg i.v.): -87.8 | ED50 (colon of rabbits; Oryctolagus cuniculus, iv): 1.24 mg/kg | PANCREATIC DNA (normal pancreatic cells; 4 mg/kg i.p. three times a day): 0.78 ± 0.03 mg | WEIGHT OF THE PANCREAS (normal pancreatic cells; 4 mg/kg i.p. three times a day): 351.2 ± 17.2 mg | PANCREATIC DNA (normal pancreatic cells; [8]): 0.83 ± 0.06 mg | WEIGHT OF THE PANCREAS (normal pancreatic cells; [8]): 370.2 ± 12.7 mg | effect on normal pancreatic cells (normal pancreatic cells): atagonises both these actions of CCK-8 to a highly significant extent | ED50 (guinea pig gall bladders): 0.11 mg/kg | AMYLASE IN THE SERUM ([3]; 5 mg/kg ip + cerulein): 29.4 U/ml | INHIBITION OF WEIGHT INCREASE ([3]; 5 mg/kg ip + cerulein): 76.9% | INHIBITION OF WEIGHT INCREASE (pancreas) ([3]; 5 mg/kg ip + cerulein): 42.8% | AMYLASE IN THE SERUM ([3]; 7.5 mg/kg ip + cerulein): 25.6 U/ml | INHIBITION OF WEIGHT INCREASE ([3]; 7.5 mg/kg ip + cerulein): 81.6% | INHIBITION OF WEIGHT INCREASE (pancreas) ([3]; 7.5 mg/kg ip + cerulein): 71.4% | AMYLASE IN THE SERUM ([3]; 10 mg/kg ip + cerulein): 13.2 U/ml | INHIBITION OF WEIGHT INCREASE ([3]; 10 mg/kg ip + cerulein): 97.1% | INHIBITION OF WEIGHT INCREASE (pancreas) ([3]; 10 mg/kg ip + cerulein): 90.5% | ED50 ([3]; read-out: ED50 (inhibition of weight increase)): 4.2 mg/kg | ED50 ([3]; read-out: ED50, inhibition of weight increase of the pancreas): 5.5 mg/kg | body weight ([4]; 0.625 mg/kg os, 1st week): 216.9 ± 3.8 g | body weight ([4]; 0.625 mg/kg os, 2nd week): 267.5 ± 3.9 g | body weight ([4]; 0.625 mg/kg os, 3rd week): 324 ± 3.6 g | body weight ([4]; 0.625 mg/kg os, time 0): 169.3 ± 1.9 g | body weight ([4]; 1.25 mg/kg os, 1st week): 242.7 ± 4.9 g | body weight ([4]; 1.25 mg/kg os, 2nd week): 318.3 ± 4.4 g | body weight ([4]; 1.25 mg/kg os, 3rd week): 371 ± 5.6 g | body weight ([4]; 1.25 mg/kg os, time 0): 168.3 ± 1.1 g | body weight ([4]; 2.5 mg/kg os, 1st week): 241.6 ± 3.7 g | body weight ([4]; 2.5 mg/kg os, 2nd week): 325.2 ± 5.5 g | body weight ([4]; 2.5 mg/kg os, 3rd week): 374.9 ± 5.1 g | body weight ([4]; 2.5 mg/kg os, time 0): 165.8 ± 1.3 g | weight increase compared with control animals ([4]; all treated groups, from the first week, in words): significantly higher weight increase than the control animals | AMYLASE IN THE SERUM ([5]; 5 mg/kg i.p. + taurocholate): 10.4 U/ml | INHIBITION OF AMYLASE INCREASE ([5]; 5 mg/kg i.p. + taurocholate): 47.0% | INHIBITION OF WEIGHT INCREASE ([5]; 5 mg/kg i.p. + taurocholate): 46.1% | AMYLASE IN THE SERUM ([5]; 10 mg/kg i.p. + taurocholate): 9.8 U/ml | INHIBITION OF AMYLASE INCREASE ([5]; 10 mg/kg i.p. + taurocholate): 64.7% | INHIBITION OF WEIGHT INCREASE ([5]; 10 mg/kg i.p. + taurocholate): 84.6% | AMYLASE IN THE SERUM ([5]; 20 mg/kg i.p. + taurocholate): 7.8 U/ml | INHIBITION OF AMYLASE INCREASE ([5]; 20 mg/kg i.p. + taurocholate): 123.5% | INHIBITION OF WEIGHT INCREASE ([5]; 20 mg/kg i.p. + taurocholate): 107.7% | ED50 ([5]; read-out: ED50, inhibition of amylase increase): 7.3 mg/kg | ED50 ([5]; read-out: ED50, inhibition of weight increase): 6.9 mg/kg | tissue damage [6]: does not moreover give rise to tissue damage | haemolysis [7]: without causing haemolysis | IC50 (guinea-pig gallbladder): 0.1 µg/mL (≈ 0.217 µM) | ED50 (digestive tract): 12.8 mg/kg

CCK-8: biologically active component of the hormone cholecystokinin [reference compound]
TUMORAL DNA [2, 9]: 0.7 | WEIGHT OF THE PANCREATIC CARCINOMA [2, 9]: 163.1 ± 4.7 mg | effect on growth of a pancreatic adenocarcinoma [2]: stimulates the growth of a pancreatic adenocacinoma | PANCREATIC DNA (normal pancreatic cells; [9]): 1.5 ± 0.06 mg | WEIGHT OF THE PANCREAS (normal pancreatic cells; [9]): 634.8 ± 20.8 mg | effect on normal pancreatic cells (normal pancreatic cells): has a trophic action on normal pancreatic cells
